Blank lines part the entries; values can stand above or below the compound they belong to.
Legend:
Type in all cases: physicochemical
[1] = Solubilization of NACA in ORA-SWEET and water
Protocol: A study was conducted to determine the solubilization of NACA in ORA-SWEET® (Ora-Sweet is a commercially available syrup vehicle containing water, sucrose, glycerin, sorbitol, flavoring, buffering agents (citric acid and/or sodium phosphate), methyl paraben and potassium sorbate, pH 4.2 manufactured by Paddock Laboratories, Inc., Minneapolis, Minnesota). HPLC equipment and glass containers and stirrers were utilized.
Therefore, NACA was dissolved in 50 mL water followed by 50 mL Ora-Sweet, shaken to dissolve in an opaque plastic bottle with closure and provided to subject for self-administration (oral ingestion).

[2] = Micronization of NACA and stability of the 1% NACA formulation
From the text: The relation between micronization conditions and an initial increase of the degradation product diNACA was further investigated. […] Therefore, the zirconium oxide milling process was further investigated and successfully optimized regarding particle size distribution, milling parameters and impurity profile for the 1% NACA formulation. […] The particle size distribution by laser diffraction analysis was ×10=1.3 μm, ×50=4.7 μm and ×90=12.3 μm. Batches were prepared and found to be stable for up to 4 weeks at ambient temperature.

[3] = Oxidation of NACA on exposure to air; conditions: exposed to air
From the text: These efforts to increase purity focused on the major impurities as measured by HPLC, namely, diNACA, DTT and cyclic DTT. […] Ethanol and methyl t-butyl Ether (MTBE) used in the reduction and solvent-exchange were degassed in an effort to reduce diNACA.

[4] = Stability of NACA/excipient mixtures (excipient screening); conditions: NACA/excipient mixtures after 4 weeks at 40° C./75% RH
Protocol: NACA Tablets, 250 mg, are packaged in high density polyethylene (HDPE) bottles with foil induction seal and a white polyproplyene screw-top closure. Excipients used for the formulation meet compendial standards. Lactose functions as a filler. Microcrystalline cellulose functions as a filler. Croscarmellose Sodium functions as a disintegrant. Stearic Acid functions as a lubricant. Excipients were screened by assessing the stability of NACA in mixtures with each excipient.

[5] = Stability and dissociation of NACA/urea co-crystal (secondary co-crystal screen)
Protocol: NACA/Urea Co-crystal. A primary co-crystal screen was conducted where 28 potential co-crystal formers (CCFs) were screened (Table 18) in 6 solvent systems under 2 process relevant crystallization conditions, namely, thermal maturation and evaporation. A NACA/urea co-crystal was identified (FIG. 15). […] NMR analysis confirmed an approximate stoichiometric content of urea contained within the material. The material appeared to be stable under ambient conditions and elevated temperature (80° C.) but unstable when stored at high humidity for prolonged periods, showing degradation to the diNACA. […] An additional DSC experiment with post-XRPD analysis confirmed that the exothermic event observed during the DSC cooling cycle is a recrystallization to NACA.

Stirring time required to achieve a solution ([1]; NACA at 80 mg/ml in ORA-SWEET): 20 to 30 min
Dissolution in water ([1]; water, shaking for 30 seconds): readily dissolved
Oxidation on exposure to air [3]: Oxidation of NACA occurs
SMILES: CC(=O)N[C@@H](CS)C(N)=O
Change of degradation product diNACA on micronization ([2]; stainless steel grinding jars): time dependent increase of the degradation product diNACA
Change of degradation product diNACA on micronization ([2]; zirconium oxide jars and balls): did not lead to an initial increase of the degradation product diNACA

% Assay [4]: 95.3%
SMILES: CC(=O)N[C@H](CS)C(N)=O

Stability under ambient conditions and elevated temperature ([5]; ambient conditions and 80° C.): stable
Dissociation in water and high water activity mixtures ([5]; deionized water and solvent/water mixtures with a high water activity): found to dissociate
Dissociation in organic solvents and low water activity mixtures ([5]; organic solvents and solvent/water mixtures with low water activity): No signs of dissociation
Stability at high humidity ([5]; stored at high humidity for prolonged periods, degradation to diNACA): unstable
SMILES: CC(=O)N[C@@H](CS)C(N)=O.NC(N)=O [NACA/urea pattern 1 material]
